Common to all, as to assay: ≥ marks a high value that may be exact or a test limit, other limits are often not marked, values filed in µg/mL are converted to µM
The test system of assay [1] is Staphylococcus aureus ATCC 2592.
Assay [2] has as its system Bacillus pumilus.
The subject of assay [3] is Bacillus cereus.
The test system of assay [4] is Escherichia coli ATCC 25922.
For assay [5], the system named is Shigella dysenteriae.
Assay [6] relates to Candida albicans ATCC 2002.
Assay [7] deals with Acinetobacter calcoaceticus.
Assay [8] concerns Pseudomonas aeruginosa.
The subject of assay [9] is Staphylococcus aureus USA 100.
For assay [10], the system named is Fusarium solani.
Assay [11] relates to Pseudomonas aeruginosa ATCC 9027.
The subject of assay [12] is Cryptococcus neoformans ATCC 208821.
The subject of assay [13] is Fusarium oxysporum.
Assay [14] concerns Staphylococcus aureus USA 300.
Assay [15] relates to Rhodococcus rhodochrous X15.
The test system of assay [16] is Psychrobacter faecalis X29.
For assay [17], the system named is Mycobacterium tuberculosis.
In assay [18] the test system is Klebsiella pneumoniae.
For assay [19], the system named is Pseudomonas aeruginosa SBI-N.
Assay [20] deals with Staphylococcus aureus ATCC 29213.
Assay [21] deals with Mycobacterium avium.
Assay [22] concerns Enterococcus faecium.
Assay [23] deals with Enterococcus faecalis CDC 21.
The test system of assay [24] is Escherichia coli mcr106.
Assay [25] relates to Pseudomonas aeruginosa MR3007.
Assay [26] deals with Pseudomonas aeruginosa ATCC 27853.
The test system of assay [27] is Escherichia coli BAS 849.
Assay [28] relates to Enterococcus faecalis ATCC 29212.
Assay [29] has as its system Pseudomonas aeruginosa MR2123.
In assay [30] the test system is Streptococcus agalactiae ATCC 12386.
Assay [31] relates to Listeria monocytogenes EGD.
The subject of assay [32] is Batrachochytrium dendrobatidis.
Assay [33] relates to Klebsiella pneumoniae ATCC 13883.
Assay [34] relates to Staphylococcus aureus 30371.
The test system of assay [35] is Acinetobacter baumannii ATCC 19606R.
The subject of assay [36] is Staphylococcus aureus ATCC 25923.
In assay [37] the test system is Enterococcus faecium 94-132.
Assay [38] concerns Salmonella enterica subsp. enterica serovar Typhimurium ATCC 14028s.
Assay [39] has as its system Mycobacterium tuberculosis H37Rv.
In assay [40] the test system is Staphylococcus aureus 28841.
Assay [41] concerns Staphylococcus aureus 930918-3.
The test system of assay [42] is Escherichia coli ML-35p.
The test system of assay [43] is Salmonella enterica serovar typhimurium MS7953s.
Assay [44] relates to Acinetobacter baumannii ATCC 19606.

The structures appear in SMILES notation. Values after ≈ are worked out from the molar mass of the structure shown. Where only a bound is given, the exact number is not on record here.

The MIC is the lowest concentration that inhibits growth of the organism. For the compound `CC[C@H](C)[C@H](NC(=O)[C@@H]1CCCN1C(=O)[C@H](Cc1ccccc1)NC(=O)[C@@H](N)Cc1ccccc1)C(=O)N[C@H](C(=O)NCC(=O)N[C@@H](CCCCN)C(=O)N[C@@H](CC(C)C)C(=O)N[C@@H](CC(C)C)C(=O)N[C@@H](Cc1ccccc1)C(=O)NCC(=O)N[C@@H](CC(C)C)C(=O)N[C@@H](CC(C)C)C(N)=O)C(C)C` [FFPIVGKLLFGLL], the MIC in assay [1] was 5.12 µM (≈ 7.5 µg/mL); in assay [2], 10.2 µM (≈ 15 µg/mL); in assay [3], at least 51.2 µM; in assay [4], 10.2 µM (≈ 15 µg/mL); in [5], 20.5 µM (≈ 30 µg/mL); in assay [6], 3.42 µM (≈ 5 µg/mL). The MIC in assay [7] is at least 41 µM; in assay [8] it was 5.12 µM (≈ 7.5 µg/mL).

Turning to `NC(=O)[C@H](Cc1c[nH]c2ccccc12)NC(=O)[C@H](CCCN=C(N)N)NC(=O)[C@H](Cc1c[nH]c2ccccc12)NC(=O)[C@H](CCCN=C(N)N)NC(=O)[C@H](Cc1c[nH]c2ccccc12)NC(=O)[C@H](CCCN=C(N)N)NC(=O)[C@H](Cc1c[nH]c2ccccc12)NC(=O)[C@@H](N)CCCN=C(N)N` [RWRWRWRW], the MIC in assay [9] worked out at 6.25 µM (≈ 8.67 µg/mL); in [10], 8 µM (≈ 11.1 µg/mL); in assay [11], 50 µM (≈ 69.3 µg/mL); in [12] it was 23.1 µM (≈ 32 µg/mL); in [13], 16 µM (≈ 22.2 µg/mL); in assay [14], 12.5 µM (≈ 17.3 µg/mL).

`CC[C@H](C)[C@H](NC(=O)[C@H](C)NC(=O)[C@@H](NC(=O)[C@H](CC(=O)O)NC(=O)[C@H](CCCCN)NC(=O)[C@H](Cc1ccccc1)NC(=O)[C@@H](NC(=O)[C@H](CC(=O)O)NC(=O)[C@H](CC(C)C)NC(=O)[C@@H](NC(=O)CN)C(C)C)[C@@H](C)O)C(C)C)C(=O)NCC(=O)N[C@H](C(=O)N[C@@H](C)C(=O)N[C@@H](CCCCN)C(=O)NCC(=O)N[C@@H](C)C(=O)NCC(=O)N[C@H](C(=O)NCC(=O)N[C@H](C(=O)N[C@@H](CC(C)C)C(=O)N[C@@H](CCCCN)C(=O)N[C@@H](C)C(=O)N[C@@H](CC(C)C)C(=O)N[C@@H](CC(C)C)C(=O)N[C@H]1CSSC[C@@H](C(=O)O)NC(=O)[C@H](CO)NC(=O)[C@H](CCCCN)NC(=O)[C@H](CC(=O)O)NC(=O)[C@H](CC(C)C)NC(=O)[C@H](CCCCN)NC1=O)C(C)C)[C@@H](C)O)C(C)C` [GVLDTFKDVAIGVAKGAGTGVLKALLCKLDKSC]: the minimal inhibitory concentration (MIC) in [1] was at least 60 µM; in assay [15], 30 µM (≈ 98.7 µg/mL); in assay [16], 15 µM (≈ 49.3 µg/mL).

Regarding `CC[C@H](C)[C@H](NC(=O)CN)C(=O)NCC(=O)N[C@@H](CCCCN)C(=O)N[C@@H](Cc1ccccc1)C(=O)N[C@@H](CC(C)C)C(=O)N[C@@H](Cc1c[nH]cn1)C(=O)N[C@@H](CO)C(=O)N[C@@H](C)C(=O)NCC(=O)N[C@@H](CCCCN)C(=O)N[C@@H](Cc1ccccc1)C(=O)NCC(=O)N[C@@H](CCCCN)C(=O)N[C@@H](C)C(=O)N[C@@H](Cc1ccccc1)C(=O)N[C@H](C(=O)NCC(=O)N[C@@H](CCC(=O)O)C(=O)N[C@H](C(=O)N[C@@H](CCSC)C(=O)N[C@@H](CCCCN)C(=O)N[C@@H](CO)C(=O)O)[C@@H](C)CC)C(C)C` [GIGKFLHSAGKFGKAFVGEIMKS], the MIC was at least 53.1 µM in assay [17]; 0.747 µM (≈ 1.8 µg/mL) in assay [18]; 0.166 µM (≈ 0.4 µg/mL) in assay [19]; over 207 µM in [20]; at least 53.1 µM in [21]; 1.66 µM (≈ 4 µg/mL) in assay [22]. For the same compound, the minimal inhibitory concentration (MIC) in assay [23] is 3.03 µM (≈ 7.3 µg/mL); in assay [24], 0.373 µM (≈ 0.9 µg/mL); in assay [25] it was 0.207 µM (≈ 0.5 µg/mL); in assay [26] it was over 207 µM; in [4], 104 µM (≈ 250 µg/mL); in [27], 0.29 µM (≈ 0.7 µg/mL). In addition, the MIC is over 207 µM in [28]; 0.166 µM (≈ 0.4 µg/mL) in assay [29]; 31.1 µM (≈ 75 µg/mL) in [30]; 1.91 µM (≈ 4.6 µg/mL) in [31]; at least 47 µM in assay [32]; at least 104 µM in assay [33]. The minimum inhibitory concentration (MIC) in [34] is at least 83 µM; in assay [35] it was 26.6 µM (≈ 64 µg/mL); in assay [36], over 207 µM; in assay [37] it was 1.16 µM (≈ 2.8 µg/mL); in [38], 0.498 µM (≈ 1.2 µg/mL); in assay [39], at least 498 µM. Besides, the minimal inhibitory concentration (MIC) in assay [40] was at least 39.3 µM; in [41] it was 9.13 µM (≈ 22 µg/mL); in assay [42], 0.29 µM (≈ 0.7 µg/mL); in assay [43], 0.249 µM (≈ 0.6 µg/mL); in assay [44], 26.6 µM (≈ 64 µg/mL).

The values above are taken from DBAASP.
